Data taken from patent US8003812B2, “C10 cyclopentyl ester substituted taxanes” (priority 2004, dated 2011).
Read-outs that look alike come from different tables or passages of the source.

How the values were obtained:
Sprague-Dawley rats [1] = experiment: In vivo toxicity assessment in rats, oral; design: species or system rat; conditions: for Rat tox score PO: summary score
Protocol: (§1) Toxicity was assessed in 250-300g Sprague-Dawley rats and three rats were used per dose group. Three dose groups of the test compound, (i.e., 3 mg/kg, 9 mg/kg and 12 mg/kg for intravenous administration; 15 mg/kg, 30 mg/kg and 40 mg/kg) and 1 control group constituted a study. Animals were observed and clinical chemistry data collected at days 4 and 10. Rats were euthanized on day 11 and the nerves were excised and fixed upon euthanization for further examination.
(§2) Each rat is scored as described below and a final toxicity score that incorporates all parameters is assigned. A dead rat is assigned a score of zero. Most of the parameters contribute a positive value towards a total possible score of 130. For body weight, white blood cell, and platelet decreases, recovery is considered. […] The total score is divided by 13 to put it on a scale from 0 to 10.

[2] = system: HCT 116 human colon carcinoma; experiment: In vitro cytotoxicity, cell colony formation assay, HCT116; format: cell-based
Protocol: (§3) The cells were incubated in a CO2 incubator at 37° C. for 5 h for attachment to the bottom of Petri dishes. The compound of the present invention was made up fresh in medium at ten times the final concentration, and then 0.3 mL of this stock solution was added to the 2.7 mL of medium in the dish. The cells were then incubated with drugs for 72 h at 37° C. At the end of incubation the drug-containing media were decanted, the dishes were rinsed with 4 mL of Hank's Balance Salt Solution (HBSS), 5 mL of fresh medium was added, and the dishes were returned to the incubator for colony formation. The cell colonies were counted using a colony counter after incubation for 7 days. Cell survival was calculated and the values of IC50 (the drug concentration producing 50% inhibition of colony formation) were determined for each tested compound.

[3] = system: VM46 (resistant variant of human colon carcinoma HCT 116); experiment: In vitro cytotoxicity, cell colony formation assay, VM46; format: cell-based
Protocol: as §3
Identical assessments were carried out using VM46 (resistant variant of human colon carcinoma HCT 116 obtained from Dr. Li-Xi, M.D, Ph.D., California Pacific Medical Center, CA).

Sprague-Dawley rats [4] = experiment: In vivo toxicity assessment in rats, intravenous; conditions: IV; for Rat tox score IV: summary score
Protocol: as §1, §2

[5] = system: HT29 (human colon carcinoma) xenograft; conditions: single dose IV
Description: Score=10*(TWd1−TWdn)/TWd1, where
TWd1=tumor weight on day 1
(§4) TWDn=lowest tumor weight on day 10 or later
(§5) Thus the best score for complete regression would be 10.

[6] = system: human pancreatic tumor xenograft Panc-1; conditions: single dose IV
Description: (§6) [formula] where TTE is expressed in days, endpoint volume is in mm^3, b is the intercept, and m is the slope of the line obtained by linear regression of a log-transformed tumor growth data set. The data set is comprised of the first observation that exceeded the study endpoint volume and the three consecutive observations that immediately preceded the attainment of the endpoint volume. […] Animals classified as TR (treatment-related) deaths or NTRM (non-treatment-related metastasis) deaths are assigned a TTE value equal to the day of death. Animals classified as NTR (non-treatment-related) deaths are excluded from TTE calculations. Treatment efficacy was determined from tumor growth delay (TGD), which is defined as the increase in the median TTE for a treatment group compared to the control group: TGD=T−C, expressed in days, or as a percentage of the median TTE of the control group:
(§7) Treatment may cause partial regression (PR) or complete regression (CR) of the tumor in an animal. In a PR response, the tumor volume is 50% or less of its Day 1 volume for three consecutive measurements during the course of the study, and equal to or greater than 13.5 mm^3 for one or more of these three measurements. In a CR response, the tumor volume is less than 13.5 mm^3 for three consecutive measurements during the course of the study. An animal with a CR response at the termination of a study is additionally classified as a long-term tumor-free survivor (LTTFS).
With respect to toxicity, the animals were weighed daily on Days 1-5, then twice weekly until the completion of the study. The mice were examined frequently for overt signs of any adverse, drug-related side effects. […] The log rank test was employed to analyze the significance of the difference between the TTE values of a drug-treated group and the vehicle-treated control group. The log rank test analyzes the data for all animals except the NTR deaths. The two-tailed statistical analyses were conducted at P=0.05. The group median tumor growth curves show the median tumor volume (MTV) as a function of time. When an animal exited the study due to tumor size or TR death, the final tumor volume recorded for the animal was included with the data used to calculate the median volume at subsequent time points. If more than one death occurred in a treatment group, the tumor growth curve for that group was truncated at the time of the second death.
Human Panc-1 pancreatic carcinomas were maintained in athymic nude mice. A tumor fragment (1 mm^3) was implanted s.c. into the right flank of each test mouse. Tumors were monitored twice weekly and then daily as their size approached 200-400 mm^3 with a mean of 250-300 mm^3. On Day 1 of the study, the animals were sorted into groups of six mice, with tumor sizes of 171.5-486.0 mm^3 and group mean tumor sizes of 269.7-275.0 mm^3. Mice were sorted into groups containing six mice each, and treated according to the protocol in Tables 2A and 2B. All treatments were administered intravenously. Control Group 1 mice received the ethanol 5% and Liposyn II 95% vehicle, once on Day 1 (qd×1). […] Dosing volumes were 0.5 ml/20 g body weight for qd×1 dosing regimens and 0.3 mL/20 g body weight for the qod×5 or q4d×4 dosing schedules. Dosing volumes were scaled to the body weight of each animal. The vehicle was given to Group 1 mice in a single dose on Day 1 (qd×1).

[7] = system: DLD-1 (resistant human colon carcinoma); experiment: In vitro cytotoxicity, MTT assay, DLD-1; format: cell-based
[8] = system: human pancreatic tumor xenograft Panc-1; conditions: Panc-1, best score 10
Protocol: The tumor used for this study was maintained in athymic nude mice. A tumor fragment (1 mm^3) was implanted s.c. into the right flank of each test mouse. Tumors were monitored twice weekly and then daily as their volume approached 200-400 mm^3 with a mean of 250-300 mm^3. On Day 1 of the study, the animals were sorted into treatment groups with tumor sizes of 171.5-320.0 mm^3 and group mean tumor sizes of 212.6-216.0 mm^3. Tumor size, in mm^3, was calculated from the following formula:
[formula] where w=width and l=length in mm of the tumor. Tumor weight was estimated with the assumption that 1 mg is equivalent to 1 mm^3 of tumor volume. […] All treatments were administered orally, once on Day 1 (qd×1). […] In all groups, the dosing volume of 0.6 mL/20 g mouse was scaled to the body weight of each animal. Each animal was euthanized when its neoplasm reached the predetermined endpoint size (1200 mm^3). The time to endpoint (TTE) for each mouse was calculated by the following equation:
as §6
[formula] where: • T=median TTE for a treatment group and • C=median TTE for control Group 1.
as §7
With respect to toxicity, the animals were weighed daily on Days 1-5, then twice weekly until the completion of the study. The mice were examined frequently for overt signs of any adverse, drug-related side effects. Acceptable toxicity for the maximum tolerated dose (MTD) of a cancer drug in mice is defined by the NCl as a group mean body-weight (BW) loss of less than 20% during the test, and not more than one toxic death among ten treated animals. The log rank test was employed to analyze the significance of the difference between the TTE values of a drug-treated group and the vehicle-treated control group. The log rank test analyzes the data for all animals except the NTR deaths. The two-tailed statistical analyses were conducted at P=0.05. The group median tumor growth curves show the median tumor volume (MTV) as a function of time. When an animal exited the study due to tumor size or TR death, the final tumor volume recorded for the animal was included with the data used to calculate the median volume at subsequent time points.

[9] = system: HT29 (human colon carcinoma) xenograft; conditions: HT29, best score 10
Description: Score=10*(TWd1−TWdn)/TWd1, where
TWd1=tumor weight on day 1
as §4, §5

[10] = Homo sapiens, HCT-116, 72 h drug incubation

CCOC(=O)NC(c1cccs1)C(O)C(=O)OC1CC2(O)C(OC(=O)c3ccccc3)C3C4(OC(C)=O)COC4CC(O)C3(C)C(=O)C(OC(=O)C3CC3)C(=C1C)C2(C)C (stereo not drawn) [Compound 4051]
Rat tox score PO (Sprague-Dawley rats [1]; scale 0 to 10): 5
IC50 ([2]; 72 h drug incubation): 0.3 nM
IC50 ([3]; 72 h drug incubation): 1.62 nM

CCCC(=O)NC(c1ccco1)C(O)C(=O)OC1CC2(O)C(OC(=O)c3ccccc3)C3C4(OC(C)=O)COC4CC(O)C3(C)C(=O)C(OC(=O)C3CC3)C(=C1C)C2(C)C (stereo not drawn) [Compound 4062]
IC50 ([2]; 72 h drug incubation): 0.59 nM
IC50 ([3]; 72 h drug incubation): 7.64 nM

CC(=O)OC12COC1CC(O)C1(C)C(=O)C(OC(=O)C3CC3)C3=C(C)C(OC(=O)C(O)C(NC(=O)OCC(C)C)c4ccoc4)CC(O)(C(OC(=O)c4ccccc4)C21)C3(C)C (stereo not drawn) [Compound 4665]
IC50 ([2]; 72 h drug incubation): 2.13 nM
IC50 ([3]; 72 h drug incubation): 28.4 nM

CC(=O)OC12COC1CC(O)C1(C)C(=O)C(OC(=O)C3CC3)C3=C(C)C(OC(=O)C(O)C(NC(=O)OC(C)(C)C)c4ccncc4)CC(O)(C(OC(=O)c4ccccc4)C21)C3(C)C (stereo not drawn) [Compound 2813]
IC50 ([2]; 72 h drug incubation): 0.05 nM
IC50 ([3]; 72 h drug incubation): 8.22 nM

CC(=O)OC12COC1CC(O)C1(C)C(=O)C(OC(=O)C3CC3)C3=C(C)C(OC(=O)C(O)C(NC(=O)OC(C)(C)C)c4ccoc4)CC(O)(C(OC(=O)c4ccccc4)C21)C3(C)C (stereo not drawn) [Compound 2781, reference compound]
Rat tox score PO (Sprague-Dawley rats [1]; scale 0 to 10): 0
IC50 ([2]; 72 h drug incubation): 0.18 nM
IC50 ([3]; 72 h drug incubation): 1.91 nM
Rat tox score IV (Sprague-Dawley rats [4]; scale 0 to 10): 1

CC(=O)OC12COC1CC(O)C1(C)C(=O)C(OC(=O)C3CC3)C3=C(C)C(OC(=O)C(O)C(NC(=O)OC(C)(C)C)c4ccco4)CC(O)(C(OC(=O)c4ccccc4)C21)C3(C)C (stereo not drawn) [Compound 0843, reference compound]
Rat tox score PO (Sprague-Dawley rats [1]; scale 0 to 10): 0
IC50 ([2]; 72 h drug incubation): 0.24 nM
IC50 ([3]; 72 h drug incubation): 0.86 nM
Rat tox score IV (Sprague-Dawley rats [4]; scale 0 to 10): 0

CC(=O)OC12COC1CC(O)C1(C)C(=O)C(OC(=O)C3CC3)C3=C(C)C(OC(=O)C(O)C(NC(=O)OCC(C)C)c4ccco4)CC(O)(C(OC(=O)c4ccccc4)C21)C3(C)C (stereo not drawn) [Compound 3102, reference compound]
Rat tox score PO (Sprague-Dawley rats [1]; scale 0 to 10): 6
Efficacy Score = 10*(TWd1−TWdn)/TWd1 ([5]; Dose 60, best score 10): 1.3
Efficacy Score = 10*(TWd1−TWdn)/TWd1 ([5]; Dose 120, best score 10): 5.3
IC50 ([2]; 72 h drug incubation): 0.33 nM
Efficacy Score = 10*(TWd1−TWdn)/TWd1 ([6]; Dose 60, best score 10): 2.6
Efficacy Score = 10*(TWd1−TWdn)/TWd1 ([6]; Dose 120, best score 10): 5.3
IC50 ([3]; 72 h drug incubation): 1.49 nM
Rat tox score IV (Sprague-Dawley rats [4]; scale 0 to 10): 6

CC(=O)OC12COC1CC(O)C1(C)C(=O)C(OC(=O)C3CC3)C3=C(C)C(OC(=O)C(O)C(NC(=O)OC(C)(C)C)c4ccsc4)CC(O)(C(OC(=O)c4ccccc4)C21)C3(C)C (stereo not drawn) [Compound 2794]
IC50 ([2]; 72 h drug incubation): 0.28 nM
IC50 ([3]; 72 h drug incubation): 2.03 nM

CC(=O)OC12COC1CC(O)C1(C)C(=O)C(OC(=O)C3CC3)C3=C(C)C(OC(=O)C(O)C(NC(=O)OC(C)(C)C)c4cccs4)CC(O)(C(OC(=O)c4ccccc4)C21)C3(C)C (stereo not drawn) [Compound 0854, reference compound]
Rat tox score PO (Sprague-Dawley rats [1]; scale 0 to 10): 0
IC50 ([2]; 72 h drug incubation): 0.05 nM
IC50 ([3]; 72 h drug incubation): 0.09 nM
Rat tox score IV (Sprague-Dawley rats [4]; scale 0 to 10): 1

CC(=O)OC12COC1CC(O)C1(C)C(=O)C(OC(=O)C3CC3)C3=C(C)C(OC(=O)C(O)C(NC(=O)OC(C)(C)C)c4ccccn4)CC(O)(C(OC(=O)c4ccccc4)C21)C3(C)C (stereo not drawn) [Compound 2802]
IC50 ([2]; 72 h drug incubation): 0.3 nM
IC50 ([3]; 72 h drug incubation): 3.32 nM

CC(=O)OC12COC1CC(O)C1(C)C(=O)C(OC(=O)C3CC3)C3=C(C)C(OC(=O)C(O)C(NC(=O)OCC(C)C)c4cccs4)CC(O)(C(OC(=O)c4ccccc4)C21)C3(C)C (stereo not drawn) [Compound 3129]
IC50 ([2]; 72 h drug incubation): 1.53 nM
IC50 ([3]; 72 h drug incubation): 2.88 nM

CCCC(=O)NC(c1cccs1)C(O)C(=O)OC1CC2(O)C(OC(=O)c3ccccc3)C3C4(OC(C)=O)COC4CC(O)C3(C)C(=O)C(OC(=O)C3CC3)C(=C1C)C2(C)C (stereo not drawn) [Compound 3132]
IC50 ([2]; 72 h drug incubation): 0.37 nM
IC50 ([3]; 72 h drug incubation): 5.33 nM

CC(=O)O[C@H]1C(=O)[C@@]2(C)[C@H]([C@H](OC(=O)c3ccccc3)[C@]3(O)C[C@H](OC(=O)[C@H](O)[C@@H](NC(=O)c4ccccc4)c4ccccc4)C(C)=C1C3(C)C)[C@]1(OC(C)=O)CO[C@@H]1C[C@@H]2O [paclitaxel]
IC50 [2, 10]: 2.1 nM
IC50 ([7]; Homo sapiens, DLD-1): 10.1 nM
IC50 [3, 10]: 20 nM

CC(=O)OC12COC1CC(O)C1(C)C(=O)C(OC(=O)C3CC3)C3=C(C)C(OC(=O)C(O)C(NC(=O)OC(C)C)c4cccs4)CC(O)(C(OC(=O)c4ccccc4)C21)C3(C)C (stereo not drawn) [Compound 3071, reference compound]
Tox Score, Dose 15 mg (Sprague-Dawley rats [1]; Oral, dose 15 mg, scale 0 to 10): 6.2
Tox Score, Dose 30 mg (Sprague-Dawley rats [1]; Oral, dose 30 mg, scale 0 to 10): 5.1
Tox Score, Dose 40 mg (Sprague-Dawley rats [1]; Oral, dose 40 mg, scale 0 to 10): 1.5
Tox Score, Average (Sprague-Dawley rats [1]; Oral, average of 3 dose groups): 4.3
Tox Score, Weighted Avg (Sprague-Dawley rats [1]; Oral, weighted by dose): 3.6
Rat tox score PO (Sprague-Dawley rats [1]; scale 0 to 10): 4
IC50 ([2]; 72 h drug incubation): 0.17 nM
Efficacy Score = 10*(TWd1−TWdn)/TWd1 ([8]; single dose oral 60 mg/kg): 5.8
Efficacy Score = 10*(TWd1−TWdn)/TWd1 ([8]; single dose oral 120 mg/kg): 7.3
IC50 ([3]; 72 h drug incubation): 1.51 nM
Tox Score, Dose 3 mg (Sprague-Dawley rats [4]; dose 3 mg, scale 0 to 10): 7.7
Tox Score, Dose 9 mg (Sprague-Dawley rats [4]; dose 9 mg, scale 0 to 10): 6
Tox Score, Dose 12 mg (Sprague-Dawley rats [4]; dose 12 mg, scale 0 to 10): 3.2
Tox Score, Weighted Avg (Sprague-Dawley rats [4]; Wt Avg = (Σ(dose × grp score))/24): 4.8
Tox Score, Average (Sprague-Dawley rats [4]; average of 3 dose groups): 5.6
Rat tox score IV (Sprague-Dawley rats [4]; scale 0 to 10): 5
Efficacy Score = 10*(TWd1−TWdn)/TWd1 ([9]; single dose oral 60 mg/kg): 6.3
Efficacy Score = 10*(TWd1−TWdn)/TWd1 ([9]; single dose oral 120 mg/kg): 7.5

CC(=O)OC12COC1CC(O)C1(C)C(=O)C(OC(=O)C3CC3)C3=C(C)C(OC(=O)C(O)C(NC(=O)OCC(C)C)c4ccsc4)CC(O)(C(OC(=O)c4ccccc4)C21)C3(C)C (stereo not drawn) [Compound 5011]
IC50 ([2]; 72 h drug incubation): 2.99 nM
IC50 ([3]; 72 h drug incubation): 8.47 nM

CCOC(=O)NC(c1ccco1)C(O)C(=O)OC1CC2(O)C(OC(=O)c3ccccc3)C3C4(OC(C)=O)COC4CC(O)C3(C)C(=O)C(OC(=O)C3CC3)C(=C1C)C2(C)C (stereo not drawn) [Compound 3677]
IC50 ([2]; 72 h drug incubation): 0.3 nM
IC50 ([3]; 72 h drug incubation): 18.6 nM

CC(=O)O[C@@]12CO[C@@H]1C[C@H](O)[C@@]1(C)C(=O)[C@H](O)C3=C(C)[C@@H](OC(=O)[C@H](O)[C@@H](NC(=O)OC(C)(C)C)c4ccccc4)C[C@@](O)([C@@H](OC(=O)c4ccccc4)[C@H]21)C3(C)C [docetaxel]
IC50 ([2]; 72 h drug incubation): 0.6 nM
IC50 [7]: 9.1 nM
IC50 ([3]; 72 h drug incubation): 6.7 nM

CC(=O)OC12COC1CC(O)C1(C)C(=O)C(OC(=O)C3CC3)C3=C(C)C(OC(=O)C(O)C(NC(=O)OC(C)C)c4ccco4)CC(O)(C(OC(=O)c4ccccc4)C21)C3(C)C (stereo not drawn) [Compound 3853, reference compound]
Rat tox score PO (Sprague-Dawley rats [1]; scale 0 to 10): 1
IC50 ([2]; 72 h drug incubation): 0.08 nM
IC50 ([3]; 72 h drug incubation): 0.99 nM
Rat tox score IV (Sprague-Dawley rats [4]; scale 0 to 10): 1
